{"source": "patent US4022889A", "about": "“Therapeutic compositions of antibiotic U-44,590 and methods for using the same” (The Upjohn Company, priority 1975, dated 1977)", "key": {"[1]": {"tested_on": "Gram-negative and Gram-positive bacteria", "assay": "Antibacterial activity (statement)", "details": "for example, Streptococcus hemolyticus, Klebsiella, Salmonella Sp., Serratia marcescens, Pasteurella multocida, Hemophilus Sp., Proteus morgani, Proteus rettgeri"}, "Herpes virus": {"tested_on": "Herpes virus", "assay": "Activity against DNA viruses (statement)", "details": "for example, the Herpes virus"}, "Herpes simplex virus": {"tested_on": "Herpes simplex virus", "assay": "Antiviral activity in mice inoculated intravenously with Herpes simplex virus", "type": "in vivo", "details": "400, 200 and 100 mg./kg./dose subcutaneously, four times daily, days 0-4; 40 LD50 virus intravenously", "experimental": "The following is an example of the antiviral activity of antibiotic U-44,590. The antibiotic is administered subcutaneously to mice which are inoculated intravenously with Herpes simplex virus. Treatment is initiated 2 hours prior to viral infection and is followed by treatment four times daily for five consecutive days. A detailed account of the materials and methods and results are as follows:\nMale mice, weighing approximately 20 gm. each, are divided into 4 groups of 20. Group 1 is treated with saline, Group 2 with 400 mg./kg./dose (mkd) U-44,590, Group 3 with 200 mkd U-44,590, and Group 4 with 100 mkd U-44,590. The antibiotic is dissolved in saline and administered subcutaneously in the nape of the neck at 8 a.m., 12 noon, 4 p.m., and 8 p.m. on days 0, 1, 2, 3, and 4. Herpes virus at 10^^-1.5 dilution, 0.05 ml/mouse, equivalent to a viral dose of 40 LD50 s, is inoculated into the tail vein at 10 a.m. on day 0. Paralysis and death are recorded daily.\nHind leg paralysis usually preceded death by 1-2 days. All mice died that became paralyzed. Death pattern of the 4 groups, as shown in the curves which follow, illustrates the dose response obtained."}, "Proteus mirabilis [2]": {"tested_on": "Proteus mirabilis", "assay": "In vivo testing in infected mice", "details": "IP challenge 1259 LD50, read-out: Activity (CD50)", "excerpt": "(§1) In vivo testing of U-44,590 in mice infected with selected microorganisms is as follows: […]"}, "Salmonella flexneri": {"tested_on": "Salmonella flexneri", "assay": "In vivo testing in infected mice", "details": "IP challenge 40 LD50, read-out: Activity (CD50)", "excerpt": "as §1"}, "Escherichia coli [3]": {"tested_on": "Escherichia coli", "assay": "In vivo testing in infected mice", "details": "IP challenge 79 LD50, read-out: Activity (CD50)", "excerpt": "as §1"}, "Proteus vulgaris [4]": {"tested_on": "Proteus vulgaris", "assay": "In vivo testing in infected mice", "excerpt": "as §1"}, "[5]": {"tested_on": "Streptococcus hemolyticus", "assay": "In vivo testing in infected mice", "details": "Streptococcus pyogenes, Oral route, IP challenge 100 LD50, read-out: Activity (CD50)", "excerpt": "as §1"}, "Solubilities": {"assay": "Solubilities", "type": "physicochemical"}, "Escherichia coli [6]": {"tested_on": "Escherichia coli", "assay": "Antibacterial activity (statement)"}, "Proteus morgani": {"tested_on": "Proteus morgani", "assay": "Antibacterial activity, standard agar dilution test", "type": "cell-based", "details": "16 h, 3 strains, Brain Heart Infusion, 37° C., 16-18 hours, read-out: Inhibition", "experimental": "(§2) The above antibacterial spectrum was obtained by a standard agar dilution test with the following media and conditions:\n(§3) Difco Brain Heart Infusion Medium was used for all test bacteria except P. multocida and Hemophilus species which were grown in Difco Blood Agar Base with 5% defibrinated rabbit blood. All were grown aerobically at 37° C. (except Hemophilus species, grown anaerobically) 16-18 hours. Inocula were grown overnite (16-18 hours) at 37° C. and used to seed agar at the rate of 0.025 ml. of 10^^-3 dilution (approximately 2500 to 25,000 bacteria per drop of inoculum)."}, "Proteus mirabilis [7]": {"tested_on": "Proteus mirabilis", "assay": "Antibacterial activity, standard agar dilution test", "type": "cell-based", "details": "16 h, 3 strains, Brain Heart Infusion, 37° C., 16-18 hours, read-out: Inhibition", "experimental": "as §2, §3"}, "Diplococcus pneumoniae": {"tested_on": "Diplococcus pneumoniae", "assay": "Antibacterial activity, standard agar dilution test", "type": "cell-based", "details": "Streptococcus pneumoniae, 16 h, 1 strain, Brain Heart Infusion, 37° C., 16-18 hours, read-out: Inhibition", "experimental": "as §2, §3"}, "Proteus vulgaris [8]": {"tested_on": "Proteus vulgaris", "assay": "Antibacterial activity, standard agar dilution test", "type": "cell-based", "details": "16 h, 3 strains, Brain Heart Infusion, 37° C., 16-18 hours, read-out: Inhibition", "experimental": "as §2, §3"}, "Serratia marcescens": {"tested_on": "Serratia marcescens", "assay": "Antibacterial activity, standard agar dilution test", "type": "cell-based", "details": "16 h, 2 strains, Brain Heart Infusion, 37° C., 16-18 hours, read-out: Inhibition", "experimental": "as §2, §3"}, "Staphylococcus aureus": {"tested_on": "Staphylococcus aureus", "assay": "Antibacterial activity, standard agar dilution test", "type": "cell-based", "details": "16 h, 1 strain, Brain Heart Infusion, 37° C., 16-18 hours, read-out: Inhibition", "experimental": "as §2, §3"}, "Pseudomonas aeruginosa": {"tested_on": "Pseudomonas aeruginosa", "assay": "Antibacterial activity, standard agar dilution test", "type": "cell-based", "details": "16 h, 5 strains, Brain Heart Infusion, 37° C., 16-18 hours, read-out: Inhibition", "experimental": "as §2, §3"}, "[9]": {"tested_on": "Streptococcus hemolyticus", "assay": "Antibacterial activity, standard agar dilution test", "type": "cell-based", "experimental": "as §2, §3"}, "Pasteurella multocida": {"tested_on": "Pasteurella multocida", "assay": "Antibacterial activity, standard agar dilution test", "type": "cell-based", "details": "16 h, 1 strain, Blood Agar Base with 5% defibrinated rabbit blood, 37° C., 16-18 hours, read-out: Inhibition", "experimental": "as §2, §3"}}, "note": "Like-named read-outs stand apart in the source and are kept apart here."}
{"compound": "CN1CN([C@H]2C[C@H](O)[C@@H](CO)O2)C(=O)NC1=O", "note": "[U-44,590, 1(2-deoxy-β-D-erythro-pentofuranosyl)-5,6-dihydro-5-methyl-s-triazine-2,4(1H,3H)-dione]", "values": [{"measurement": "Effect on growth of bacteria", "setting": "[1]", "result": "adversely affecting the growth of Gram-negative and Gram-positive bacteria"}, {"measurement": "Activity against DNA viruses", "setting": "Herpes virus", "result": "active against DNA viruses"}, {"measurement": "Death pattern, statistical analysis of the results at day 11", "setting": "Herpes simplex virus", "result": "all 3 treated groups are significantly different from the control group (1)"}, {"measurement": "ED50", "setting": "Proteus mirabilis [2]; Oral route", "result": 101, "unit": "mg/kg"}, {"measurement": "ED50", "setting": "Proteus mirabilis [2]; sc, Subcutaneous route", "result": 152, "unit": "mg/kg"}, {"measurement": "ED50", "setting": "Salmonella flexneri; Oral route", "result": 62.5, "unit": "mg/kg"}, {"measurement": "ED50", "setting": "Salmonella flexneri; sc, Subcutaneous route", "result": 38, "unit": "mg/kg"}, {"measurement": "ED50", "setting": "Escherichia coli [3]; Oral route", "result": 218, "unit": "mg/kg"}, {"measurement": "ED50", "setting": "Escherichia coli [3]; sc, Subcutaneous route", "result": 141, "unit": "mg/kg"}, {"measurement": "ED50", "setting": "Proteus vulgaris [4]; po, IP challenge 79 LD50, read-out: Activity (CD50)", "result": "< 62.5", "unit": "mg/kg"}, {"measurement": "ED50", "setting": "Proteus vulgaris [4]; po, IP challenge 150 LD50 (line without organism name below Proteus vulgaris), read-out: Activity (CD50)", "result": "~30", "unit": "mg/kg"}, {"measurement": "ED50", "setting": "Proteus vulgaris [4]; sc, Subcutaneous route, IP challenge 79 LD50, read-out: Activity (CD50)", "result": 100, "unit": "mg/kg"}, {"measurement": "ED50", "setting": "[5]", "result": "> 160", "unit": "mg/kg"}, {"measurement": "Solubility", "setting": "Solubilities; in Me2 CO, EtOAc, hydrocarbons, CH2 Cl2 and CHCl3", "result": "relatively insoluble"}, {"measurement": "Solubility", "setting": "Solubilities; in water, and lower alcohols, for example, methanol and ethanol", "result": "Highly soluble"}, {"measurement": "Activity against Escherichia coli", "setting": "Escherichia coli [6]", "result": "active against Escherichia coil"}, {"measurement": "MIC", "setting": "Proteus morgani", "result": "62.5 to 250", "unit": "mg/L"}, {"measurement": "MIC", "setting": "Proteus mirabilis [7]", "result": "> 1000", "unit": "mg/L"}, {"measurement": "MIC", "setting": "Diplococcus pneumoniae", "result": 500, "unit": "mg/L"}, {"measurement": "MIC", "setting": "Proteus vulgaris [8]", "result": "> 1000", "unit": "mg/L"}, {"measurement": "MIC", "setting": "Serratia marcescens", "result": 125, "unit": "mg/L"}, {"measurement": "MIC", "setting": "Staphylococcus aureus", "result": "> 1000", "unit": "mg/L"}, {"measurement": "MIC", "setting": "Pseudomonas aeruginosa", "result": "> 1000", "unit": "mg/L"}, {"measurement": "Activity against Streptococcus hemolyticus", "setting": "[9]", "result": "active against Streptococcus hemolyticus"}, {"measurement": "MIC", "setting": "[9]; Streptococcus pyogenes, 16 h, Streptococcus hemolyticus, 1 strain, Brain Heart Infusion, 37° C., 16-18 hours, read-out: Inhibition", "result": 15.2, "unit": "mg/L"}, {"measurement": "MIC", "setting": "Pasteurella multocida", "result": 125, "unit": "mg/L"}]}
